From PubChem BioAssay AID2060484 (Molecular Pharmacology Branch, DTP, NCI, 2025) come the findings set out here.

This assay has as its system SUM149PT spheroids with HUVEC/MSC, viability. Kind of assay: Anticancer human tumor SUM149PT cell line growth inhibition [GQUAD].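 As to all read-outs here: spheroids exposed to drugs for seven days before readout.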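 As to viability, T/C: percent viability relative to DMSO vehicle control taken as 100%.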 As to conditions: for viability, T/C: stronger effect = lower value. The text has this: DNA G-quadruplex Stabilizer Agents in Combinations in Complex Spheroids
A high-throughput screen of multi-cell type tumor spheroids was designed to identify active combinations of DNA G-quadruplex stabilizer agents and targeted small molecules. Complex spheroids include a stromal component modeled by human endothelial cells (HUVEC) and fibroblasts modeled by human mesenchymal stem cells (MSCs). The concentration ranges selected for each drug and investigational agent were based upon clinically achievable concentrations if the clinical Cmax of the agent was known.
Compounds. The drugs and investigational agents: pidnarulex (CX-5461; NSC782164), APTO-253 (NSC789042), BRACO-19 (NSC847499), peposertib (NSC802822), ceralasertib (NSC780249), elimusertib (NSC800525), camonsertib (NSC841442), AZD-1390 (NSC803789), olaparib (NSC753686), talazoparib (NSC767125), ART-558 (NSC835418), sotorasib (NSC818433), MRTX-1133 (NSC836407), SN-38 (NSC673596), topotecan (NSC609699), etoposide (NSC141540), doxorubicin (NSC123127), gemcitabine (NSC613327), 5-fluorouracil (NSC19893), paclitaxel (NSC125973), vemurafenib (NSC761431), panobinostat (NSC761190), R-306465 (JNJ-16241199; NSC773264), adavosertib (NSC754352), TP-3654 (NSC805149), carboplatin (NSC241240), KSQ-4279 (NSC840948), and staurosporine (NSC755774) were obtained from the National Cancer Institute (NCI) Developmental Therapeutics Program Chemical Repository (34). The FDA-approved anticancer drug set is available from the NCI Developmental Therapeutics Program. […] The stock solutions were prepared in dimethyl sulfoxide (DMSO, Sigma-Aldrich, St. Louis, MO, cat. D2650) at 800-fold the tested concentration and stored at -70 degrees C prior to their use. All drugs and investigational agents were tested over a range starting from a high concentration at or near the clinical Cmax and decreasing in half-log increments. If the clinical Cmax for an agent had not been determined, the highest concentration tested was 10 microM.
2.3 Cell Culture. All cells were maintained in an incubator at 37 degrees C and 5% CO2 with 95% humidity. The PDC lines were cultured according to standard operating procedures established by the NCI PDMR. All PDCs were thawed and cultured in Matrigel-coated flasks prepared with a working solution of 1X Ham's F-12 nutrient mix, without supplementation (Invitrogen, cat. 11765054), 100 U/mL penicillin-streptomycin (Invitrogen, cat. 15140122), and 2.5% Matrigel (Corning Inc., cat. 354248) for the first three passages. The 857933-349-R-J2-PDC line was cultured in 6C/Colon 1B media, which includes advanced DMEM/F-12 (Thermo Fisher Scientific, cat. 12634028), 10 mM HEPES (Thermo Fisher Scientific, cat. 15630080), 1X GlutaMAX supplement (Thermo Fisher Scientific, cat. 35050061), 0.1 mg/mL primocin (InvivoGen, cat. ant-pm-2), 10% defined fetal bovine serum, heat inactivated (HyClone Laboratories Inc., cat. SH30070.03HI), 50% L-WRN conditioned media (ATCC, cat. CRL-3276), 1.25 mM N-Acetyl-L-cysteine (Sigma-Aldrich, cat. A9165), 10 mM nicotinamide (Sigma-Aldrich, cat. N0636), 1X B-27 supplement (Thermo Fisher Scientific, cat. 17504044), 1X N-2 supplement (Thermo Fisher Scientific, cat. 17502048), 10 microM Y-27632 dihydrochloride (Tocris Bioscience, cat. 1254), and 50 ng/mL human EGF recombinant protein (Thermo Fisher Scientific, cat. PHG0311). The 485176-168-R4-J1-PDC line was cultured in Panc media, which includes all 6C/Colon 1B media components plus 100 ng/mL human FGF-10 (Thermo Fisher Scientific, cat. 100-26), 500 nM SB-431542 (Selleckchem, cat. S1067), and gastrin (Tocris, cat. 3006).
[…]

[1] abbreviates: compound alone, run of 03/18/2024.

Several values for one entry are separate records, joined by “and”; a condition that tells them apart may be missing. Equal values may be shown once.

By viability, T/C is commonly meant the result in the treated group divided by that in the control group, in per cent. Broadly, the IC50 is the midpoint of a concentration-inhibition curve. On to `O=C(c1cc(Cc2n[nH]c(=O)c3ccccc23)ccc1F)N1CCN(C(=O)C2CC2)CC1`, for which the viability, T/C was 92.5% and 110% and 104% (compound 0.0316 µM); 97.8% and 93.5% and 82.5% (compound 0.1 µM); 92.7% and 102% and 99.8% (compound 0.316 µM); 108% and 96.9% and 101% (compound 1 µM); 106% and 108% and 97.4% (compound 3.16 µM); 70.6% and 86.7% and 69.7% (compound 10 µM). The IC50 (curve of compound) is above 10 µM.

Take `Cn1ncnc1[C@H]1c2n[nH]c(=O)c3cc(F)cc(c23)N[C@@H]1c1ccc(F)cc1`: the viability, T/C reads like this: (compound 0.000999 µM) 98.5% and 103% and 109%; (compound 0.00316 µM) 97.1% and 96.5% and 102%; (compound 0.00999 µM) 97.5% and 93.8% and 91.6%; (compound 0.0316 µM) 81.4% and 91.5% and 83.6%; (compound 0.0999 µM) 68.1% (2×) and 91.5%; (compound 0.316 µM) 54.4% and 76.8% and 53.9%. The IC50 (curve of compound) is above 0.316 µM.

`COc1cccc2c1C(=O)c1c(O)c3c(c(O)c1C2=O)CC(O)(C(=O)CO)CC3OC1CC(N)C(O)C(C)O1` (stereo not drawn) + Cc1[nH]c2ccc(F)cc2c1-c1nc2c3cccnc3c3ncccc3c2[nH]1: the IC50 (curve of first compound, second compound 0.0316 µM) was 0.204 µM; the IC50 (curve of first compound, second compound 0.1 µM) worked out at 0.203 µM; the IC50 (curve of first compound, second compound 0.316 µM) worked out at 0.19 µM; the IC50 (curve of first compound, second compound 1 µM) is 0.201 µM; the IC50 (curve of first compound, second compound 3.16 µM) came to 0.171 µM; the IC50 (curve of first compound, second compound 10 µM) is 0.145 µM. The viability, T/C by setting is: (second compound 0.0316 µM, first compound 0.0316 µM) 91.3%; (second compound 0.0316 µM, first compound 0.1 µM) 62.5%; (second compound 0.0316 µM, first compound 0.316 µM) 44.3%; (second compound 0.0316 µM, first compound 1 µM) 19.1%; (second compound 0.0316 µM, first compound 3.16 µM) 2.87%; (second compound 0.0316 µM, first compound 10 µM) 0.48%. Moreover, the viability, T/C runs as follows: (second compound 0.1 µM, first compound 0.0316 µM) 91.1%; (second compound 0.1 µM, first compound 0.1 µM) 62.1%; (second compound 0.1 µM, first compound 0.316 µM) 45.2%; (second compound 0.1 µM, first compound 1 µM) 16.8%; (second compound 0.1 µM, first compound 3.16 µM) 2.57%; (second compound 0.1 µM, first compound 10 µM) 1.39%. Besides, the viability, T/C is 84.3% (second compound 0.316 µM, first compound 0.0316 µM); 60.2% (second compound 0.316 µM, first compound 0.1 µM); 43% (second compound 0.316 µM, first compound 0.316 µM); 18.9% (second compound 0.316 µM, first compound 1 µM); 3.58% (second compound 0.316 µM, first compound 3.16 µM); 1.15% (second compound 0.316 µM, first compound 10 µM). The viability, T/C runs as follows: (second compound 1 µM, first compound 0.0316 µM) 94.7%; (second compound 1 µM, first compound 0.1 µM) 61.9%; (second compound 1 µM, first compound 0.316 µM) 44.7%; (second compound 1 µM, first compound 1 µM) 19.4%; (second compound 1 µM, first compound 3.16 µM) 2.12%; (second compound 1 µM, first compound 10 µM) 1.25%. In addition, the viability, T/C (second compound 3.16 µM, first compound 0.0316 µM) is 82.6%; the viability, T/C (second compound 3.16 µM, first compound 0.1 µM) is 58.5%; the viability, T/C (second compound 3.16 µM, first compound 0.316 µM) was 40.8%; the viability, T/C (second compound 3.16 µM, first compound 1 µM) is 16.7%; the viability, T/C (second compound 3.16 µM, first compound 3.16 µM) is 4.43%; the viability, T/C (second compound 3.16 µM, first compound 10 µM) was 1.38%. The viability, T/C runs as follows: (second compound 10 µM, first compound 0.0316 µM) 90.3%; (second compound 10 µM, first compound 0.1 µM) 54%; (second compound 10 µM, first compound 0.316 µM) 39.5%; (second compound 10 µM, first compound 1 µM) 15.7%; (second compound 10 µM, first compound 3.16 µM) 3.44%; (second compound 10 µM, first compound 10 µM) 0.4%.

Take `COc1cccc2c1C(=O)c1c(O)c3c(c(O)c1C2=O)CC(O)(C(=O)CO)CC3OC1CC(N)C(O)C(C)O1` (stereo not drawn): the viability, T/C was 89.5% and 100% and 94% (compound 0.0316 µM); 56.8% and 67.1% and 55.3% (compound 0.1 µM); 39.5% and 52.4% and 38.2% (compound 0.316 µM); 16.9% and 25.1% and 15.2% (compound 1 µM); 1.91% and 4.16% and 1.88% (compound 3.16 µM); 1.41% and 1.73% and 1.61% (compound 10 µM). Further, for the setting “curve of compound”, the IC50 is 0.159 µM and 0.27 µM and 0.147 µM.

With `O=c1[nH]cc(F)c(=O)[nH]1`, the viability, T/C was 103% and 95.7% and 106% (compound 0.0316 µM); 93.6% and 90.8% and 93.9% (compound 0.1 µM); 108% and 110% and 101% (compound 0.316 µM); 102% and 107% and 96% (compound 1 µM); 56.9% and 55.7% and 61.6% (compound 3.16 µM); 51.6% and 43.3% and 50.6% (compound 10 µM). For the same compound, the IC50 (curve of compound) was > 10 µM and 5.36 µM.

As for `Nc1ccn(C2OC(CO)C(O)C2(F)F)c(=O)n1` (stereo not drawn), the viability, T/C is 74.9% and 85.4% and 74.1% (compound 0.0316 µM); 37.6% and 48.4% and 42% (compound 0.1 µM); 24.5% and 38.1% and 20.7% (compound 0.316 µM); 23.8% and 31.2% and 18.5% (compound 1 µM); 16.5% (2×) and 24.5% (compound 3.16 µM); 15.4% and 24.8% and 17% (compound 10 µM). Moreover, the IC50 (curve of compound) was 0.0693 µM and 0.108 µM and 0.0751 µM.

With `Cc1cnc(CNC(=O)c2c(=O)c3ccc(N4CCCN(C)CC4)nc3n3c2sc2ccccc23)cn1`, the viability, T/C by setting is: (compound 0.0316 µM) 87.8% [middle of 12 runs]; (compound 0.1 µM) 70% [middle of 12 runs]; (compound 0.316 µM) 57.5% [middle of 12 runs]; (compound 1 µM) 46.9% [middle of 12 runs]; (compound 3.16 µM) 36.2% [middle of 12 runs]. The IC50 under setting [1] is 725 nM [middle of 12 runs].

With `CC[C@@]1(O)C(=O)OCc2c1cc1n(c2=O)Cc2cc3c(CN(C)C)c(O)ccc3nc2-1`, the viability, T/C is 105% (2×) and 108% (compound 0.000999 µM); 94.7% and 93.8% and 94.1% (compound 0.00316 µM); 98% and 95.1% and 105% (compound 0.00999 µM); 84.5% and 87.9% and 69.8% (compound 0.0316 µM); 43.6% and 53.2% and 39.2% (compound 0.0999 µM); 49.1% and 51.8% and 48.5% (compound 0.316 µM). Also, where the note is “curve of compound”, the IC50 was 0.0895 µM and > 0.316 µM and 0.076 µM.

Turning to `Cc1[nH]c2ccc(F)cc2c1-c1nc2c3cccnc3c3ncccc3c2[nH]1`, the viability, T/C reads like this: (compound 0.1 µM) 102% [middle of 12 runs]; (compound 0.316 µM) 104% [middle of 12 runs]; (compound 1 µM) 99% [middle of 12 runs]; (compound 10 µM) 98.4% [middle of 12 runs]. Besides, the IC50 reads like this: under setting [1], above 10 µM; (compound alone, run of 03/26/2024) above 10 µM.

As to `O=C(NO)c1cnc(N2CCN(S(=O)(=O)c3ccc4ccccc4c3)CC2)nc1`, the viability, T/C is, setting by setting: (compound 0.0316 µM) 97.1% and 108% and 102%; (compound 0.1 µM) 86.9% and 95.1% and 86.5%; (compound 0.316 µM) 48.5% (2×) and 56.6%; (compound 1 µM) 0.52% and 2.34% and 1.78%; (compound 3.16 µM) 0.32% and 0.27% and 0.08%; (compound 10 µM) 0.29% and 0.71%. In addition, the IC50 (curve of compound) is 0.295 µM and 0.355 µM and 0.286 µM.
